Assay results reported in PubChem BioAssay (NCI).
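Protocol summary: plate cells (96-well), add compound at 5 concentrations, incubate 48 h, interpolate endpoints linearly. TGI is the concentration that stops growth completely.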 Where a SMILES comes first, the peptide text is derived from it. [ ]: non-standard residue; d: D form. The star is where a group is joined. NMeAc5c = CNC1(C(=O)O)CCCC1; Boc = CC(C)(C)OC(=O)*; OBn = c1ccc(CO*)cc1

What follows are molecules tested on SF-268 CNS (assay: NCI tumour cell line growth inhibition, 48 h).
`COc1ccc(-c2cc(O)c3nc4ccccc4n3c2)cc1` gave a TGI of over 100 µM.
`O=C1CC(NC(=O)C(F)(F)F)c2c(Br)sc(N3CCNCC3)c21` (centres undefined) showed a TGI of over 100 µM.
`COc1cc2nc3n(c(=O)c2cc1OC)-c1ccc([N+](=O)[O-])cc1C3=O` was tested, and the TGI was over 100 µM.
For `CC(=O)OC1CC(OC2C(O)CC(OC3C(O)CC(OC4CCC5(C)C(CCC6C5CC(O)C5(C)C(C7=CC(=O)OC7)CCC65O)C4)OC3C)OC2C)OC(C)C1OC1OC(CO)C(O)C(O)C1O` (centres undefined), the TGI was 0.185 µM.
In the case of `ClCCN1CCC2(CC1)SSC1(CCN(CCCl)CC1)S2`, the TGI is reported as 30.9 µM.
`C1CN(c2nc3c(nnc4nc(N5CCOCC5)sc43)s2)CCO1` gave a TGI of over 100 µM.
`COc1ccc(C2CC(c3c(O)ccc4ccccc34)=NN2C(C)=O)cc1OC` (centres undefined) showed a TGI of over 100 µM.
`COC(=O)C1SC(SC)=NC12c1ccccc1Nc1ccccc12` (centres undefined) showed a TGI of over 100 µM.
Molecule `COc1ccc2cc(NC(=O)N/N=C\c3ccc([N+](=O)[O-])cc3)ccc2c1` has a TGI of 55.4 µM.
Work on `CCCN(C(=O)c1ccccc1)C(C#N)c1ccc(C(C#N)N(CCC)C(=O)c2ccccc2)cc1` (centres undefined) yielded a TGI of over 100 µM.
With `C=CC1(C)CCC2C(=CCC3C2(C)CC(O)C(O)C3(C)COC2OC(C(=O)O)C(O)C(O)C2O)C1` (centres undefined) (tested in a mixture with another compound) the TGI was over 100 µM.
With `O=[N+]([O-])c1ccc2c(c1)/C(=N/N=C1c3ccccc3Cc3ccccc31)c1cc([N+](=O)[O-])cc([N+](=O)[O-])c1-2` the TGI was 5.81 µM.
`CN(C(=O)C(Cc1ccccc1)NC(=O)OC(C)(C)C)C1(C(=O)NC(Cc2ccccc2)C(=O)OCc2ccccc2)CCCC1` (stereo not drawn) (Boc-Phe-[NMeAc5c]-Phe-OBn; configuration not given here) gave a TGI of over 100 µM.
`CC(C)=CCc1c2c(c3occ(-c4ccc(O)cc4)c(=O)c3c1O)CC(C(C)(C)O)O2` (centres undefined) was tested, and the TGI was 48.5 µM.
With `COc1ccc(-c2c(C#N)c(-c3ccc(C)cc3)n(NS(=O)(=O)c3ccc(C)cc3)c(=O)c2C#N)cc1` the TGI was over 100 µM.
`CCOC(=O)C(SCCO)C(C(=O)OCC)n1cnc2c(=O)[nH]c(NC(C)=O)nc21` (centres undefined) was tested, and the TGI was over 100 µM.
With `O=C(N/N=C(/COc1ccc(Cl)cc1)N=Cc1ccncc1)c1ccncc1` the TGI was over 100 µM.
In the case of `COc1cc(C2c3cc4c(cc3OC(N3CCOCC3)C2C)OCO4)ccc1O` (centres undefined), the TGI is reported as over 100 µM.
`Cc1ccc(N=NC(=Nc2ccccc2)c2ccc(N(CCC#N)CCC#N)cc2)cc1` gave a TGI of over 100 µM.
`Cc1ccccc1C(=O)N1CCc2c([nH]c3ccccc23)C1` showed a TGI of over 100 µM.
Molecule `NC(=O)NCCCC(NC(=O)OCCCCn1ccc(=O)[nH]c1=O)C(=O)O` (centres undefined) has a TGI of over 100 µM.
Work on `Clc1ccccc1C(SCc1ccccc1)SCc1ccccc1` yielded a TGI of over 100 µM.
With `CC[C@@H]1CC[C@@H]2[C@H](CC[C@]3(C)[C@@H](OC(C)=O)CC[C@@H]23)[C@H]1COC(C)=O` the TGI was 92.5 µM.
With `COC(=O)C([C@H](NC1(c2ccccc2)c2ccccc2-c2ccccc21)C(=O)OC)N(NC(=O)OCc1ccccc1)C(=O)OCc1ccccc1` (mixture of isomers) the TGI was over 100 µM.
For `COC(=O)c1cc(=O)nc2sc3cccc(C)c3n12`, the TGI was over 100 µM.

These molecules were tested on SK-MEL-2 melanoma (assay: NCI tumour cell line growth inhibition, 48 h).
Molecule `CCCCCCCCCCCCCCNC(=O)CCC(NC(=O)c1ccc(N(C)Cc2cnc3nc(N)nc(N)c3n2)cc1)C(=O)NCCCCCCCCCCCCCC` (centres undefined) has a TGI of over 61.9 µM.
With `COc1ccc(N/N=C2\CCOc3ccc(C)cc3C2=O)cc1` the TGI was 46 µM.
`NC(N)=N/N=C/c1c(-c2ccc(N)cc2)nc2sccn12` gave a TGI of 81.8 µM.
Molecule `CO/C(=N\N=C\c1ccc(C(F)(F)F)cc1)c1ccncc1` has a TGI of over 10 µM.
`CCCCCCc1cc2cc(-c3csc(CC#N)n3)c(=O)oc2cc1O` was tested, and the TGI was over 100 µM.
With `COc1cc(Br)cc2cc(-c3cn4ccsc4n3)c(=O)oc12` the TGI was over 100 µM.
For `O=c1[nH]c(Nc2cccc(CC(F)(F)F)c2)nc2nc[nH]c12`, the TGI was over 100 µM.
`O=C1CC(NC(=O)C(F)(F)F)c2c(Br)sc(N3CCNCC3)c21` (centres undefined) showed a TGI of over 100 µM.
In the case of `COc1cc2nc3n(c(=O)c2cc1OC)-c1ccc([N+](=O)[O-])cc1C3=O`, the TGI is reported as over 100 µM.
For `CC(=O)OC1CC(OC2C(O)CC(OC3C(O)CC(OC4CCC5(C)C(CCC6C5CC(O)C5(C)C(C7=CC(=O)OC7)CCC65O)C4)OC3C)OC2C)OC(C)C1OC1OC(CO)C(O)C(O)C1O` (centres undefined), the TGI was 0.488 µM.
With `ClCCN1CCC2(CC1)SSC1(CCN(CCCl)CC1)S2` the TGI was over 100 µM.
Molecule `C1CN(c2nc3c(nnc4nc(N5CCOCC5)sc43)s2)CCO1` has a TGI of over 100 µM.
With `COc1ccc(C2CC(c3c(O)ccc4ccccc34)=NN2C(C)=O)cc1OC` (centres undefined) the TGI was 52.1 µM.
Molecule `COC(=O)C1SC(SC)=NC12c1ccccc1Nc1ccccc12` (centres undefined) has a TGI of 47.3 µM.
Work on `COc1ccc2cc(NC(=O)N/N=C\c3ccc([N+](=O)[O-])cc3)ccc2c1` yielded a TGI of over 100 µM.
For `CCCN(C(=O)c1ccccc1)C(C#N)c1ccc(C(C#N)N(CCC)C(=O)c2ccccc2)cc1` (centres undefined), the TGI was over 100 µM.
Work on `C=CC1(C)CCC2C(=CCC3C2(C)CC(O)C(O)C3(C)COC2OC(C(=O)O)C(O)C(O)C2O)C1` (centres undefined) (tested in a mixture with another compound) yielded a TGI of over 100 µM.
`O=[N+]([O-])c1ccc2c(c1)/C(=N/N=C1c3ccccc3Cc3ccccc31)c1cc([N+](=O)[O-])cc([N+](=O)[O-])c1-2` was tested, and the TGI was 24.8 µM.
`CN(C(=O)C(Cc1ccccc1)NC(=O)OC(C)(C)C)C1(C(=O)NC(Cc2ccccc2)C(=O)OCc2ccccc2)CCCC1` (stereo not drawn) (Boc-Phe-[NMeAc5c]-Phe-OBn; configuration not given here) was tested, and the TGI was over 100 µM.
Work on `CC(C)=CCc1c2c(c3occ(-c4ccc(O)cc4)c(=O)c3c1O)CC(C(C)(C)O)O2` (centres undefined) yielded a TGI of 28.1 µM.
`COc1ccc(-c2c(C#N)c(-c3ccc(C)cc3)n(NS(=O)(=O)c3ccc(C)cc3)c(=O)c2C#N)cc1` was tested, and the TGI was over 100 µM.
In the case of `CCOC(=O)C(SCCO)C(C(=O)OCC)n1cnc2c(=O)[nH]c(NC(C)=O)nc21` (centres undefined), the TGI is reported as over 100 µM.
For `O=C(N/N=C(/COc1ccc(Cl)cc1)N=Cc1ccncc1)c1ccncc1`, the TGI was over 100 µM.
`COc1cc(C2c3cc4c(cc3OC(N3CCOCC3)C2C)OCO4)ccc1O` (centres undefined) was tested, and the TGI was 33.6 µM.
With `Cc1ccc(N=NC(=Nc2ccccc2)c2ccc(N(CCC#N)CCC#N)cc2)cc1` the TGI was 48 µM.
Work on `Cc1ccccc1C(=O)N1CCc2c([nH]c3ccccc23)C1` yielded a TGI of 27 µM.
Molecule `NC(=O)NCCCC(NC(=O)OCCCCn1ccc(=O)[nH]c1=O)C(=O)O` (centres undefined) has a TGI of over 100 µM.
With `Clc1ccccc1C(SCc1ccccc1)SCc1ccccc1` the TGI was over 100 µM.
`CC[C@@H]1CC[C@@H]2[C@H](CC[C@]3(C)[C@@H](OC(C)=O)CC[C@@H]23)[C@H]1COC(C)=O` was tested, and the TGI was 34.5 µM.
Molecule `COC(=O)C([C@H](NC1(c2ccccc2)c2ccccc2-c2ccccc21)C(=O)OC)N(NC(=O)OCc1ccccc1)C(=O)OCc1ccccc1` (mixture of isomers) has a TGI of over 100 µM.
`COC(=O)c1cc(=O)nc2sc3cccc(C)c3n12` showed a TGI of 82.5 µM.

What follows are molecules tested on SW-620 colon (assay: NCI tumour cell line growth inhibition, 48 h).
`CCCCCCCCCCCCCCNC(=O)CCC(NC(=O)c1ccc(N(C)Cc2cnc3nc(N)nc(N)c3n2)cc1)C(=O)NCCCCCCCCCCCCCC` (centres undefined) showed a TGI of over 43 µM.
For `COc1ccc(N/N=C2\CCOc3ccc(C)cc3C2=O)cc1`, the TGI was over 100 µM.
For `NC(N)=N/N=C/c1c(-c2ccc(N)cc2)nc2sccn12`, the TGI was 68.2 µM.
`CO/C(=N\N=C\c1ccc(C(F)(F)F)cc1)c1ccncc1` showed a TGI of over 10 µM.
Molecule `CCCCCCc1cc2cc(-c3csc(CC#N)n3)c(=O)oc2cc1O` has a TGI of over 100 µM.
For `COc1cc(Br)cc2cc(-c3cn4ccsc4n3)c(=O)oc12`, the TGI was over 100 µM.
For `Nn1c(-c2ccccc2)nn(C(=O)c2ccccc2)c1=O`, the TGI was over 100 µM.
Work on `O=c1[nH]c(Nc2cccc(CC(F)(F)F)c2)nc2nc[nH]c12` yielded a TGI of over 100 µM.
Work on `COc1ccc(-c2cc(O)c3nc4ccccc4n3c2)cc1` yielded a TGI of over 100 µM.
In the case of `O=C1CC(NC(=O)C(F)(F)F)c2c(Br)sc(N3CCNCC3)c21` (centres undefined), the TGI is reported as over 100 µM.
For `COc1cc2nc3n(c(=O)c2cc1OC)-c1ccc([N+](=O)[O-])cc1C3=O`, the TGI was 62.2 µM.
`CC(=O)OC1CC(OC2C(O)CC(OC3C(O)CC(OC4CCC5(C)C(CCC6C5CC(O)C5(C)C(C7=CC(=O)OC7)CCC65O)C4)OC3C)OC2C)OC(C)C1OC1OC(CO)C(O)C(O)C1O` (centres undefined) showed a TGI of 0.252 µM.
`ClCCN1CCC2(CC1)SSC1(CCN(CCCl)CC1)S2` showed a TGI of over 100 µM.
`C1CN(c2nc3c(nnc4nc(N5CCOCC5)sc43)s2)CCO1` gave a TGI of over 100 µM.
In the case of `COc1ccc(C2CC(c3c(O)ccc4ccccc34)=NN2C(C)=O)cc1OC` (centres undefined), the TGI is reported as over 100 µM.
`COC(=O)C1SC(SC)=NC12c1ccccc1Nc1ccccc12` (centres undefined) showed a TGI of over 100 µM.
In the case of `COc1ccc2cc(NC(=O)N/N=C\c3ccc([N+](=O)[O-])cc3)ccc2c1`, the TGI is reported as over 100 µM.
`CCCN(C(=O)c1ccccc1)C(C#N)c1ccc(C(C#N)N(CCC)C(=O)c2ccccc2)cc1` (centres undefined) was tested, and the TGI was over 100 µM.
In the case of `C=CC1(C)CCC2C(=CCC3C2(C)CC(O)C(O)C3(C)COC2OC(C(=O)O)C(O)C(O)C2O)C1` (centres undefined) (tested in a mixture with another compound), the TGI is reported as over 100 µM.
`O=[N+]([O-])c1ccc2c(c1)/C(=N/N=C1c3ccccc3Cc3ccccc31)c1cc([N+](=O)[O-])cc([N+](=O)[O-])c1-2` showed a TGI of 9.38 µM.
Work on `CN(C(=O)C(Cc1ccccc1)NC(=O)OC(C)(C)C)C1(C(=O)NC(Cc2ccccc2)C(=O)OCc2ccccc2)CCCC1` (stereo not drawn) (Boc-Phe-[NMeAc5c]-Phe-OBn; configuration not given here) yielded a TGI of over 100 µM.
`CC(C)=CCc1c2c(c3occ(-c4ccc(O)cc4)c(=O)c3c1O)CC(C(C)(C)O)O2` (centres undefined) gave a TGI of 64.4 µM.
With `COc1ccc(-c2c(C#N)c(-c3ccc(C)cc3)n(NS(=O)(=O)c3ccc(C)cc3)c(=O)c2C#N)cc1` the TGI was over 100 µM.
With `CCOC(=O)C(SCCO)C(C(=O)OCC)n1cnc2c(=O)[nH]c(NC(C)=O)nc21` (centres undefined) the TGI was over 100 µM.
For `O=C(N/N=C(/COc1ccc(Cl)cc1)N=Cc1ccncc1)c1ccncc1`, the TGI was over 100 µM.
`COc1cc(C2c3cc4c(cc3OC(N3CCOCC3)C2C)OCO4)ccc1O` (centres undefined) showed a TGI of over 100 µM.
Molecule `Cc1ccc(N=NC(=Nc2ccccc2)c2ccc(N(CCC#N)CCC#N)cc2)cc1` has a TGI of over 100 µM.
`Cc1ccccc1C(=O)N1CCc2c([nH]c3ccccc23)C1` showed a TGI of over 100 µM.
With `NC(=O)NCCCC(NC(=O)OCCCCn1ccc(=O)[nH]c1=O)C(=O)O` (centres undefined) the TGI was over 100 µM.
In the case of `Clc1ccccc1C(SCc1ccccc1)SCc1ccccc1`, the TGI is reported as over 100 µM.
`CC[C@@H]1CC[C@@H]2[C@H](CC[C@]3(C)[C@@H](OC(C)=O)CC[C@@H]23)[C@H]1COC(C)=O` was tested, and the TGI was over 100 µM.
`COC(=O)C([C@H](NC1(c2ccccc2)c2ccccc2-c2ccccc21)C(=O)OC)N(NC(=O)OCc1ccccc1)C(=O)OCc1ccccc1` (mixture of isomers) was tested, and the TGI was over 100 µM.
`COC(=O)c1cc(=O)nc2sc3cccc(C)c3n12` showed a TGI of over 100 µM.
